A word on the IC50: it is the concentration needed to halve the response being measured.

Results on 21 compounds are retold here after PMC7558282, “The Anticancer Activity for the Bumetanide-Based Analogs via Targeting the Tumor-Associated Membrane-Bound Human Carbonic Anhydrase-IX Enzyme” (Pharmaceuticals, 2020).

The target in assay [1] is T1, hCA-IX (Homo sapiens, UniProt Q16790). The arrangement: purchased BPS Bioscience 71101. The settings on record: compared with compound 2; no reference given; cited from earlier work.
The target of another assay is cytosolic hCAs. More on the design: method as in PMID 18600270, PMID 18374572. As to conditions: read-out: inhibition for cytosolic hCAs (weak); cited from earlier work.
In assay [2] the target is tumor-associated hCA isoforms. The arrangement: method as in PMID 18600270, PMID 18374572. As to conditions: cited from earlier work.
A further assay addresses mitochondrial hCAs. The arrangement: method as in PMID 18600270, PMID 18374572. As to conditions: read-out: inhibition for mitochondrial hCAs (moderate); cited from earlier work.
The target in another assay is hCA-II (Homo sapiens, UniProt P00918). The assay is described as follows: colorimetric CA-inhibition assay based on CA-esterase activity, hCA-II. As to conditions: hCA-II IC50, three replicate experiments; N/D = non-detected IC50 within the range of the tested concentrations.
The target of assay [3] is T1, hCA-IX. The assay is described as follows: colorimetric CA-inhibition assay based on CA-esterase activity, hCA-IX. As to conditions: for IC50: hCA-IX IC50, three replicate experiments; for Selectivity Ratio II/IX: ratio of IC50 values for isozyme CA-II relative to CA-IX.
Description: (§2) Based on the kit manufacturer’s protocol, the candidate inhibitors were dissolved in DMSO at 10 × highest final test concentration and specific aliquots of such working dilutions were incubated with the target hCA isozyme for 10 min at room temperature prior to permit the formation of the enzyme-inhibitor complex. Triplicate experiments were performed for each candidate inhibitor concentration. Parallel wells of solvent and enzyme controls were prepared to test the solvent impact upon the activity of the target enzyme. […] Following incubation, the CA-substrate was added and changes in absorbance (at 405 nm) were monitored for 60 min at room temperature within the kinetic mode. The negative enzyme control wells (without added compounds) were arbitrarily set as 100% enzyme activity. […] Absorbance readings from background wells were subtracted from the compound assay wells in order to account for background hydrolysis activity caused by the buffer solution [44, 45].
The test system of assay [4] is SCaBER bladder squamous cell carcinoma cells. The assay is described as follows: MTT cell proliferation assay, SCaBER. In kind it is cell-based. The settings on record: Homo sapiens, 48 h, ±SEM. The method, then:
(§1) Cells were cultured in 96-well plate, at cell density of 1.2–1.8 × 10^4 cells/well, using Dulbecco’s Modified Eagle Medium (Invitrogen^TM, Carlsbad, CA, USA) supplemented with 10% (w/v) fetal bovine serum (Hyclone^TM, Marlborough, MA, USA), 10 ug/mL of insulin (Sigma-Aldrich^TM, St. Louis, MO, USA), and 1% (w/v) penicillin-streptomycin (Sigma-Aldrich^TM, St. Louis, MO, USA). Following 24h-incubation period under 5% CO2 at 37 °C, cells were treated with compounds’ serial concentrations (0.1 µM–100 µM) in DMSO, where the DMSO final concentration in the culture medium never exceeded 0.2% (v/v). Subsequently, the treated microplates were incubated for 48 h at 5% CO2/37 °C prior to examination under the inverted microscope and proceeding for the MTT assay. The culture medium was discarded and 100 µL of complete medium comprising 5 mg/mL MTT dye were dispensed within every well, then plates were reincubated for 2 h at 5% CO2/37 °C. […] Color intensity within each well was measured spectrophotometrically using the ROBONIK-P2000® ELISA microplate reader (Bio-Tek^TM, Winooski, VT, USA) at 450 nm while subtracting the background absorbance of multi well plates at 690 nm. The experiment was conducted in triplicates and IC50 values were estimated through linear regression between the logarithm-transformed compound concentrations and corresponding % cell viability = (mean absorbance in test wells/mean absorbance in control wells) ∗ 100, having the response variable slope (four parameters) for all samples.
(In general: Formazan colour is commonly taken as a measure of viable cells.)

The test system of assay [5] is A-498 kidney carcinoma cells. Kind of assay: MTT cell proliferation assay, A-498. The settings on record: ±SEM. It counts as cell-based, human. The method, then:
as §1

The structures appear in SMILES notation. “And” between values parts separate entries of the source, which are not always exact repeats. Equal values may be shown once.

Description for hCA-II: as §2

In the case of `CCCCNc1cc(C(=O)O)cc(S(N)(=O)=O)c1Oc1ccccc1` [Bumetanide, bumetanide], the “hCA-IX inhibition of bumetanide” value at hCA-IX [1] is ~ 23 nM. For the same compound, the Ki on cytosolic hCAs is 2570 to 6980 nM; at mitochondrial hCAs it was 250 to 700 nM. Further, in assay [2], the “Ki on the tumor-associated hCA isoforms” value is 21.1 to 25.8 nM.
`CCCCNc1cc(C(=O)OC)cc(S(N)(=O)=O)c1Oc1ccccc1` [Compound 2, bumetanide methyl ester] gave a concentration for half-maximal inhibition (IC50) at hCA-II of 668 nM. On hCA-IX [3], half-maximal inhibition (IC50) required 23.7 nM and the “Selectivity Ratio II/IX” value came out at 28.1.
For `CCCCNc1cc(C(=O)NN)cc(S(N)(=O)=O)c1Oc1ccccc1` [Compound 3, bumetanide hydrazide], in that order: 1610 nM, 7.87 nM and 205.1.
For `CCCCNc1cc(C(=O)N2N=CCC2=O)cc(S(N)(=O)=O)c1Oc1ccccc1` [Compound 4], in that order: 1050 nM, 16.4 nM and 63.9.
The like results for `CCCCNc1cc(-c2n[nH]c(=S)o2)cc(S(N)(=O)=O)c1Oc1ccccc1` [Compound 5] were, in that order, 486 nM, 12.4 nM and 39.0.
On hCA-IX [3], `CCCCNc1cc(C(=O)n2nc(C)cc2C)cc(S(N)(=O)=O)c1Oc1ccccc1` [Compound 6a] came in with an IC50 of 16.6 nM.
On hCA-II, `CCCCNc1cc(C(=O)n2nc(C)cc2-c2ccccc2)cc(S(N)(=O)=O)c1Oc1ccccc1` [Compound 6b] gave a 50% inhibitory concentration (IC50) of 858 nM. Further, on hCA-IX [3], the IC50 was 5.43 nM and the “Selectivity Ratio II/IX” value was found to be 158.9.
For `CCCCNc1cc(C(=O)NNC(=S)Nc2ccccc2)cc(S(N)(=O)=O)c1Oc1ccccc1` [Compound 7a], in that order: 1570 nM, 17.7 nM and 88.6.
Turning to `C=CCNC(=S)NNC(=O)c1cc(NCCCC)c(Oc2ccccc2)c(S(N)(=O)=O)c1` [Compound 7b], the IC50 at hCA-II was 1340 nM; against hCA-IX [3], 14.4 nM. The “Selectivity Ratio II/IX” value at hCA-IX [3] was 93.4.
The like results for `CCCCNc1cc(C(=O)NNC(=S)Nc2ccc(Br)cc2)cc(S(N)(=O)=O)c1Oc1ccccc1` [Compound 7c] were, in that order, 1540 nM, 12.9 nM and 118.9.
As for `CCCCNc1cc(C(=O)N/N=c2\scc(-c3ccc(Cl)cc3)n2-c2ccccc2)cc(S(N)(=O)=O)c1Oc1ccccc1` [Compound 8a], the concentration for half-maximal inhibition (IC50) was 28400 ± 1400 nM in assay [4]; 251 nM on hCA-II; 6.53 nM against hCA-IX [3]; 15700 ± 630 nM in assay [5] (48 h); 15600 nM in assay [5] (Homo sapiens, A498, 48 h). In addition, on hCA-IX [3], the “Selectivity Ratio II/IX” value turned out to be 38.6.
`CCCCNc1cc(C(=O)N/N=c2\scc(-c3ccc(C)cc3)n2-c2ccccc2)cc(S(N)(=O)=O)c1Oc1ccccc1` [Compound 8b] registered an IC50 against hCA-II of 1320 nM. Also, at hCA-IX [3], the IC50 amounted to 13 nM and the “Selectivity Ratio II/IX” value is 101.6.
In the case of `CCCCNc1cc(C(=O)N/N=c2\scc(-c3ccc(OC)cc3)n2-c2ccccc2)cc(S(N)(=O)=O)c1Oc1ccccc1` [Compound 8c], the IC50 against hCA-II stood at 474 nM. Also, at hCA-IX [3], 12.6 nM corresponded to half-maximal inhibition (IC50) and the “Selectivity Ratio II/IX” value was 37.5.
The like results for `C=CCn1c(-c2ccc(Cl)cc2)cs/c1=N\NC(=O)c1cc(NCCCC)c(Oc2ccccc2)c(S(N)(=O)=O)c1` [Compound 8d] were, in that order, 5120 nM, 6.36 nM and 804.6.
The like results for `C=CCn1c(-c2ccc(C)cc2)cs/c1=N\NC(=O)c1cc(NCCCC)c(Oc2ccccc2)c(S(N)(=O)=O)c1` [Compound 8e] were, in that order, 518 nM, 11.5 nM and 44.9.
As for `C=CCn1c(-c2ccc(OC)cc2)cs/c1=N\NC(=O)c1cc(NCCCC)c(Oc2ccccc2)c(S(N)(=O)=O)c1` [Compound 8f], the half-inhibitory concentration (IC50) against hCA-II turned out to be 999 nM. Also, on hCA-IX [3], the IC50 amounted to 13.4 nM and the “Selectivity Ratio II/IX” value came to 74.5.
On to `CCCCNc1cc(C(=O)N/N=c2\scc(-c3ccc(Cl)cc3)n2-c2ccc(Br)cc2)cc(S(N)(=O)=O)c1Oc1ccccc1` [Compound 8g], for which the half-maximal inhibitory concentration (IC50) is 784 nM on hCA-II; > 7 nM and 7.18 nM on hCA-IX [3]. The “Selectivity Ratio II/IX” value at hCA-IX [3] amounted to 109.2.
Regarding `CCCCNc1cc(C(=O)N/N=c2\scc(-c3ccc(C)cc3)n2-c2ccc(Br)cc2)cc(S(N)(=O)=O)c1Oc1ccccc1` [Compound 8h], the IC50 in assay [4] was 78040 ± 290 nM; at hCA-II, 205 nM and 209 nM; against hCA-IX [3] it was > 7 nM and 14.3 nM; in assay [5] (Homo sapiens, A498, 48 h) it was 6550 ± 260 nM. In addition, the “Selectivity Ratio II/IX” value on hCA-IX [3] amounted to 14.5.
Consider `CCCCNc1cc(C(=O)N/N=c2\scc(-c3ccc(OC)cc3)n2-c2ccc(Br)cc2)cc(S(N)(=O)=O)c1Oc1ccccc1` [Compound 8i], for which the IC50 is 426 nM at hCA-II; > 7 nM and 10.6 nM at hCA-IX [3]. The “Selectivity Ratio II/IX” value on hCA-IX [3] is 40.3.
`CCCCNc1cc(-c2n[nH]c(=S)n2-c2ccccc2)cc(S(N)(=O)=O)c1Oc1ccccc1` [Compound 9a]: on hCA-II, the concentration for half-maximal inhibition (IC50) worked out at 4060 nM. Further, at hCA-IX [3], the IC50 is 5.31 nM and the “Selectivity Ratio II/IX” value stood at 764.8.
Turning to `C=CCn1c(-c2cc(NCCCC)c(Oc3ccccc3)c(S(N)(=O)=O)c2)n[nH]c1=S` [Compound 9b], the half-inhibitory concentration (IC50) came to 78100 ± 1700 nM in assay [4]; 205 nM against hCA-II; 7.25 nM against hCA-IX [3]; 16100 ± 1400 nM in assay [5] (48 h); 16000 nM in assay [5] (Homo sapiens, A498, 48 h). The “Selectivity Ratio II/IX” value at hCA-IX [3] came out at 28.3.
